Results: patent publication US8008525B2, “Receptor function regulating agent” (Takeda Pharmaceutical Company Limited, priority 2003, dated 2011)
One block for each molecule: values may come before it.

Assays:
AtT-20 cells [1] = assay: Test Example 3: suppression of CRF-induced ACTH secretion in AtT-20 cells; type: cell-based, mouse; settings: 10 μM of compound; 100 nM CRF; 90 minutes; adherent AtT-20 substrain
Method: Influence on ACTH secretion from mouse pituitary corticotrophic cell line AtT-20 cells was analyzed. […] This adherent AtT-20 cell substrain was cultured on a poly-D-lysine-coated 48-well plate at a density of 1×10^5 cells/well for 2 nights, which was provided for assay. […] After washing the cells once with this buffer, a predetermined concentration of the compound was added thereto, followed by addition of a buffer containing 100 nM of a corticotropin-releasing factor (CRF), and followed by culturing at 37° C. for 90 minutes in a CO2 incubator. Then, the plate was gently stirred, then centrifuged at 1200 rpm for 5 minutes at room temperature and the buffer was recovered from the intermediate layer. The ACTH concentration was determined using an ACTH assay kit (Mitsubishi Medical, ACTH IRMA “Yuka”).

human 14273 receptor [2] = molecular target: T1, human 14273 receptor (Homo sapiens, UniProt Q5NUL3); assay: Test Example 1: regulating effect for 14273 receptor function (agonist effect), change in intracellular calcium level by FLIPR; type: cell-based; settings: CHO cell line (No. 104) expressing human 14273 receptor, change of fluorescent intensity after 35 seconds
T1 construct: expressed in transfected cells
T1 sequence (Q5NUL3 1-361): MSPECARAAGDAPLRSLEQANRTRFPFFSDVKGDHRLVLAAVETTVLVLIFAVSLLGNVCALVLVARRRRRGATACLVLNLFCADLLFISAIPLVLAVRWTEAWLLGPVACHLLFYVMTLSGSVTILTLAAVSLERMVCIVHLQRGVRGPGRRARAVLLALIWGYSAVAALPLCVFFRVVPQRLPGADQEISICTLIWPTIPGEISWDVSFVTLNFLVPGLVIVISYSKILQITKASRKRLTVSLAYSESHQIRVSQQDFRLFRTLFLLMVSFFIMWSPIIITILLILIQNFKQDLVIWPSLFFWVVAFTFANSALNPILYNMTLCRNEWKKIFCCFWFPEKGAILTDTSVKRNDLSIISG
Method: CHO cell lines (No. 104) in which a human 14273 receptor has expressed was diluted to contain 3×10^4/100 μl cells, and dispensed in Black walled 96-well plate (Costar) at a density of 100 μl/well, followed by culturing overnight in a CO2 incubator. A change in intracellular calcium level was measured using FLIPR (Molecular Device). The method is described as below. 50 μg of Fluo-3AM (DOJIN) was dissolved in 21 μl of DMSO (DOJIN) and an equal volume of 20% pluronic acid (Molecular Probes) was added thereto, followed by mixing them. The mixture was added to 10.6 ml of the assay buffer [which is prepared by adding 10 ml of a solution, which is prepared by adding 20 ml of 1 M HEPES (pH 7.4, DOJIN) to 1 L of HBSS (Invitrogen), dissolving 710 mg of probenecid (Sigma) in 5 ml of 1 N NaOH, and further adding 5 ml of the above-mentioned HBSS/HEPES solution and mixing it.] supplemented with 105 μl of fetal bovine serum to prepare a fluorescent dye solution. The medium of the cell plate was removed, the fluorescent dye solution was dispensed in 100 μl each per well. The culturing was performed in a CO2 incubator for 1 hour to incorporate the fluorescent dye into the cells. The cells after culturing were washed with the assay buffer. The compounds to be added to the cells were diluted to each concentration with a buffer solution to which CHAPS (DOJIN) was added in 0.015%, and dispensed in a plate for the test sample. Following the pretreatment above, a change in intracellular calcium level after addition of the compound was determined with FLIPR to investigate the agonist effect. An EC50 value was calculated from dose-reaction curve using the change of fluorescent intensity after 35 seconds from the reaction initiation.

3T3-L1 adipocytes = assay: Test Example 2: suppression of lipolysis (glycerol production) in differentiated 3T3-L1 adipocytes; type: cell-based, mouse; settings: treated 45 minutes, isoproterenol 1×10^−10 M, compound 40 μM and 20 μM (FIG. 14)
Method: Influence on lipolysis was investigated with use of mouse fibroblast-like cell line 3T3-L1 cells that can differentiate to adipocyte. […] The 3T3-L cells were plated on a plate and cultured to become confluent. The cells were then treated for 48 hours in the medium containing 10 μg/ml of insulin, 0.5 mM of 3-isobutyl-1-methylxanthine (IBMX) and 2.5 μM of dexamethasone to induce differentiation into adipocytes. The culturing was continued for further 11 days. After the 3T3-L1 cells were differentiated into adipocytes, a change in the amount of glycerol produced after lipolysis was assayed. After the cells were washed with modified Krebs-Ringer buffer, they were treated with the compounds for 45 minutes, and the supernatant was then recovered. The glycerol content in the supernatant was determined using a Free Glycerol Determination Kit (Sigma).

human 14273 receptor [3] = molecular target: T1, human 14273 receptor; assay: Reference Example A2: reactivity of fatty acids, intracellular calcium by FLIPR in CHO-K1 cells expressing human 14273 receptor; type: cell-based; settings: 30 μM fatty acid; CHO-K1 cells transiently expressing human 14273; FLIPR (FIG. 1-5)
Method: (§1) CHO-K1 cell line was cultured using Ham's F-12 medium (Invitrogen) containing 10% fetal bovine serum (Invitrogen), unless otherwise described. On the day before transfection was conducted, 4.5×10^5 cells were dispersed per 10 cm^2, and cultured at 37° C. for 15 hours by a CO2 incubator adjusted to a CO2 concentration of 5%. Transfection was carried out using a Lipofectamine reagent (Invitrogen) in accordance with the instruction accompanying the reagent. In the case of using a 6-well plate as culture dish, the following steps were performed. First of all, two tubes having a volume of 1.5 ml each were provided, and 100 μl of an Opti-MEM-I medium (Invitrogen) was dispensed to each of the tubes. Next, after adding 1 μg of an expression vector to one tube and adding 6 μl of the Lipofectamine reagent to the other tube, both of them were mixed, and left at rest at room temperature for 20 minutes. A mixture for transfection, in which 800 μl of the Opti-MEM-I medium was added to this solution, was added to the CHO-K1 cells previously washed using the Opti-MEM-I medium, and then the cells were cultured in the CO2 incubator for 6 hours. The cells after culturing were rinsed using PBS (Invitrogen), then detached using a 0.05% trypsin/EDTA solution (Invitrogen), and recovered through centrifugation. The number of the obtained cells was measured, and the cells were diluted to a concentration of 5×10^4 cells per 100 μl of the medium. This dilution was separately injected to a Black-walled 96-well plate (Costar) in an amount of 100 μl per well, and then the cells were incubated overnight in a CO2 incubator. To the CHO-K1 cells which transiently expressed the receptor during the transfection operation, various test samples were added, and the change in the intracellular calcium concentration during this operation was measured using FLIPR (Molecular Device). In order to measure the change in the intracellular calcium concentration with FLIPR, the following pretreatment was performed. First, Assay Buffer for washing cells was prepared in order to add a fluorescent dye Fluo3-AM (DOJIN) to the cells, or to wash cells immediately before performing the FLIPR assay. To a solution prepared by adding 20 ml of 1 M HEPES (pH 7.4) (DOJIN) to 1000 ml of HBSS (Invitrogen) (hereinafter, HBSS/HEPES solution), 10 ml of a solution prepared by dissolving 710 mg of probenecid (Sigma) in 5 ml of a 1 N NaOH solution, and then further added 5 ml of the HBSS/HEPES solution thereto was added, and this solution was used as the Assay Buffer. […] After performing the pretreatment as described above, the changes in the intracellular calcium concentration after addition of various test samples were measured using FLIPR.

mouse 14273 receptor = molecular target: T2, mouse 14273 receptor (Mus musculus, UniProt Q7TMA4); assay: Reference Example A2: reactivity of fatty acids, intracellular calcium by FLIPR in CHO-K1 cells expressing mouse 14273 receptor; type: cell-based; settings: 30 μM fatty acid; CHO-K1 cells transiently expressing mouse 14273; FLIPR (FIG. 1-5)
T2 construct: expressed in transfected cells; host or cells: CHO-K1 cells, transient transfection with Lipofectamine
T2 sequence (Q7TMA4 1-361): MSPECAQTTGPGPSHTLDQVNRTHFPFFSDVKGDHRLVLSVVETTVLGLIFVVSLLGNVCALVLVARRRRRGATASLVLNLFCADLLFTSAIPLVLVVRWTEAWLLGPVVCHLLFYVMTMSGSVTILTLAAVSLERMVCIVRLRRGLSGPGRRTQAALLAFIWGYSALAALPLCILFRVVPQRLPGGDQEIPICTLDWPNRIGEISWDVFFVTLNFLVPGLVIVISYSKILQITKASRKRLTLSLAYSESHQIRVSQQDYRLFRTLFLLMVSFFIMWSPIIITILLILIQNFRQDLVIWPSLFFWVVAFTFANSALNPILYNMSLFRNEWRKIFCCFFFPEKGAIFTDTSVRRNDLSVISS
Method: as §1

AtT-20 cells [4] = assay: Reference Example A10: inhibitory activity of fatty acids against CRF-induced ACTH secretion from AtT-20 cells; settings: 10 nM CRF; 90 minutes; fatty acids conjugated with BSA; adhesive AtT-20 substrain (FIG. 13)

SMILES: Cl.NCCOc1cc(COc2ccc(CCC(=O)O)cc2F)cc(Oc2ccccc2)c1
melting point: 182 to 183 °C

SMILES: O=C(O)CCc1ccc(OCc2cccc(OCC(=O)O)c2)c(F)c1 [Example 107, 3-(4-{[3-(carboxymethoxy)benzyl]oxy}-3-fluorophenyl)propanoic acid]
melting point: 150 to 151 °C

SMILES: O=C(O)CCc1ccc(OCc2cc(OCC(=O)O)cc(Oc3ccccc3)c2)c(F)c1 [Example 129, 3-(4-{[3-(carboxymethoxy)-5-phenoxybenzyl]oxy}-3-fluorophenyl)propanoic acid]
melting point: 122 to 124 °C

SMILES: O=C(O)CCc1ccc(OCc2cccc(Oc3ccc(F)cc3)c2)c(F)c1 [Example 161, 3-(3-fluoro-4-{[3-(4-fluorophenoxy)benzyl]oxy}phenyl)propanoic acid]
lowering of the amount of ACTH secretion increased by CRF stimulation (AtT-20 cells [1]): 49% | EC50 (human 14273 receptor [2]): ≤ 10 µM

SMILES: CCCC(=O)O [butyric acid]
suppression of CRF-induced ACTH secretion (AtT-20 cells [4]): did not exhibit significant inhibition

SMILES: CC/C=C\C/C=C\C/C=C\CCCCCCCC(=O)O [α-linolenic acid]
suppression of CRF-induced ACTH secretion (AtT-20 cells [4]): significant suppression

Continued, in another order:

EC50 (human 14273 receptor [2]): ≤ 10 µM
SMILES: O=C(O)CCc1ccc(OC2CCc3ccccc32)c(Cl)c1 (stereo not shown) [Reference Example 16, 3-Chloro-4-[(2,3-dihydro-1H-inden-1-yl)oxy]benzenepropanoic acid]
amount of glycerol production increased by isoproterenol stimulation (lipolysis) (3T3-L1 adipocytes): inhibitory effect | amount of glycerol production increased by isoproterenol stimulation (lipolysis) (3T3-L1 adipocytes; listed as Reference example 16): lowering the amount of the glycerol production

response (increase in the intracellular calcium concentration) (human 14273 receptor [3]): specifically responsed | response (increase in the intracellular calcium concentration) (mouse 14273 receptor): specifically responsed
SMILES: CCCCC/C=C\C/C=C\C/C=C\C/C=C\CCCC(=O)O [arachidonic acid]

response (increase in the intracellular calcium concentration) (human 14273 receptor [3]): specifically responsed | response (increase in the intracellular calcium concentration) (mouse 14273 receptor): specifically responsed
SMILES: CCCCC/C=C\C/C=C\CCCCCCCC(=O)O [linoleic acid]

response (increase in the intracellular calcium concentration) (human 14273 receptor [3]): specifically responsed | response (increase in the intracellular calcium concentration) (mouse 14273 receptor): specifically responsed
SMILES: CCCCCC/C=C\CCCCCCCC(=O)O [palmitoleic acid]

response (increase in the intracellular calcium concentration) (human 14273 receptor [3]): specifically responsed | response (increase in the intracellular calcium concentration) (mouse 14273 receptor): specifically responsed
SMILES: CCCCC/C=C\C/C=C\C/C=C\CCCCC(=O)O [γ-linolenic acid]
suppression of CRF-induced ACTH secretion (AtT-20 cells [4]): significant suppression
